Experimental data taken from PMC6479349, “Derivatives of 3-Aminopyrazine-2-carboxamides: Synthesis, Antimicrobial Evaluation, and in Vitro Cytotoxicity” (Molecules, 2019).
Converted amounts (≈) assume the structure as drawn. “And” between values parts separate entries of the source, which are not always exact repeats. Equal values may be shown once. Read-outs that look alike come from different tables or passages of the source.

What was measured:
[1] = Lipophilicity by reverse phase HPLC (log k); details: RP-HPLC C18, MeOH 70% / H2O 30%, 30 °C
Procedure: The mobile phase consisted of MeOH (HPLC grade, 70%) and H2O (HPLC-Milli-Q Grade, 30%). The flow rate was 1.0 mL/min, samples were injected in a volume of 20 µL, and the column temperature was 30 °C. Detection and monitoring wavelength were 210 nm and 270 nm, respectively. Retention times (Rt) were measured in minutes. The dead time of the system (Dt) was determined as the retention time of the KI methanolic solution. Capacity factors k for individual compounds were calculated according to the formula k = (Rt – Dt)/Dt. Capacity factor k was converted to log scale and (log k) and used as a measure of lipophilicity.

[2] = system: Mycobacterium smegmatis DSM 43465; assay: Antimycobacterial microdilution broth panel MIC (resazurin); type: cell-based
[3] = In vitro cytotoxicity, CellTiter 96 Aqueous One; details: human
[4] = system: Mycobacterium tuberculosis H37Rv; assay: Antimycobacterial microdilution broth MIC (Alamar Blue); type: cell-based
[5] = system: Trichophyton interdigitale CCM 8377; assay: Antifungal microdilution broth MIC; details: for MIC: Trichophyton interdigitale, CCM8377, 72 h
[6] = system: Mycobacterium aurum DSM 43999; assay: Antimycobacterial microdilution broth panel MIC (resazurin); type: cell-based; details: Mycolicibacterium aurum, DSM43999
[7] = system: tested bacterial strains; assay: Antibacterial microdilution broth screening, strain not specified; details: read-out: MIC against the tested strains (antibacterial)
[8] = system: M. kansasii CNCTC My 235/80; assay: Antimycobacterial microdilution broth MIC (Alamar Blue); type: cell-based, Mycobacterium kansasii; details: Mycobacterium kansasii
[9] = system: Klebsiella pneumoniae 64-2016; assay: Antibacterial microdilution broth MIC; details: Klebsiella pneumoniae, 642016, 48 h, read-out: MIC Klebsiella pneumonia (standards)
[10] = system: Serratia marcescens 62-2016; assay: Antibacterial microdilution broth MIC; details: Serratia marcescens, 622016, 48 h, read-out: MIC Serratia marcescens (standards)
[11] = system: Staphylococcus epidermidis 112-2016; assay: Antibacterial microdilution broth MIC
[12] = system: Staphylococcus aureus methicillin resistant CCM 4750; assay: Antibacterial microdilution broth MIC
[13] = system: Escherichia coli CCM 3954; assay: Antibacterial microdilution broth MIC; details: CCM3954, 48 h, read-out: MIC Escherichia coli (standards)
[14] = system: Staphylococcus aureus CCM 4223; assay: Antibacterial microdilution broth MIC
[15] = system: Enterococcus faecalis CCM 4224; assay: Antibacterial microdilution broth MIC; details: CCM4224, 48 h, read-out: MIC Enterococcus faecalis (standards)
[16] = system: Pseudomonas aeruginosa CCM 3955; assay: Antibacterial microdilution broth MIC; details: CCM3955, 48 h, read-out: MIC Pseudomonas aeruginosa (standards)
[17] = system: C. krusei CCM 8271; assay: Antifungal microdilution broth MIC; details: Pichia kudriavzevii, CCM8271, 48 h, read-out: MIC C. krusei (standards)
[18] = system: C. tropicalis CCM 8264; assay: Antifungal microdilution broth MIC; details: Candida tropicalis, CCM8264, 48 h, read-out: MIC C. tropicalis (standards)
[19] = system: Aspergillus flavus CCM 8363; assay: Antifungal microdilution broth MIC; details: CCM8363, 48 h, read-out: MIC Aspergillus flavus (standards)
[20] = system: C. parapsilosis CCM 8260; assay: Antifungal microdilution broth MIC; details: Lodderomyces parapsilosis, CCM8260, 48 h, read-out: MIC C. parapsilosis (standards)
[21] = system: Lichtheimia corymbifera CCM 8077; assay: Antifungal microdilution broth MIC; details: CCM8077, 48 h, read-out: MIC Lichtheimia corymbifera (standards)
[22] = Mycolicibacterium smegmatis, DSM43465
[23] = Mycolicibacterium smegmatis, DSM43465, value in parentheses
[24] = Mycobacterium tuberculosis, H37RV, M. tuberculosis H37Rv, value in parentheses
[25] = Mycobacterium tuberculosis, H37RV, pH 6.6, M. tuberculosis H37Rv, Middlebrook 7H9 pH 6.6
[26] = M. tuberculosis H37Rv, Middlebrook 7H9 pH 6.6
[27] = M. tuberculosis H37Rv, value in parentheses
[28] = Staphylococcus epidermidis, 1122016, 48 h, read-out: MIC Staphylococcus epidermidis (standards)
[29] = CCM4750, 48 h, read-out: MIC Staphylococcus aureus methicillin resistant (standards)
[30] = CCM4223, 48 h, read-out: MIC Staphylococcus aureus (standards)

Structure (SMILES)	log k [1]	MIC [2, 22] [µg/mL]	MIC [2, 23] [µM]	MIC [4, 24] [µM]	MIC [4, 25] [µg/mL]	further results
CCc1ccc(NC(=O)c2nccnc2N)cc1 [Compound 16, 3-Amino-N-(4-ethylphenyl)pyrazine-2-carboxamide]	0.623	> 500	> 2060	> 413	> 100	IC50 at 24 h [3]: > 250 µM
NC(=O)c1cnccn1 [PZA, Pyrazinamide, reference compound]	–	> 100	–	–	100	–
Cc1ccc(CNC(=O)c2nccnc2N)cc1 [Compound 3, 3-Amino-N-(4-methylbenzyl)pyrazine-2-carboxamide]	0.289	> 500	> 2060	413	50 to 100	antifungal activity against TI [5]: showed activity mainly against TI; MIC Mtb [4, 26]: 100 µg/mL (≈ 413 µM)
CO[C@H]1/C=C/O[C@@]2(C)Oc3c(C)c(O)c4c(O)c(c(/C=N/N5CCN(C)CC5)c(O)c4c3C2=O)NC(=O)/C(C)=C\C=C\[C@H](C)[C@H](O)[C@@H](C)[C@@H](O)[C@@H](C)[C@H](OC(C)=O)[C@@H]1C [RIF, rifampicin, reference compound]	–	12.5 to 25	–	–	–	MIC [6]: 0.78 to 1.56 µg/mL (≈ 0.948 to 1.9 µM)
Nc1nccnc1C(=O)NCc1ccc(Cl)c(Cl)c1 [Compound 6, 3-Amino-N-(3,4-dichlorobenzyl)pyrazine-2-carboxamide]	0.493	> 500	> 1680	> 336	> 100	–
Nc1nccnc1C(=O)NCc1ccccc1 [Compound 1, 3-Amino-N-benzylpyrazine-2-carboxamide]	0.056	> 500	> 2190	> 438	> 100	antifungal activity against TI [5]: showed activity mainly against TI
CCCCCCCCNC(=O)c1nccnc1N [Compound 12, 3-Amino-N-octylpyrazine-2-carboxamide]	1.057	62.5	250	100	25	MIC ([2]; value in parentheses): 249.7 µM; MIC [7]: 62.5 µM (≈ 15.6 µg/mL); MIC ([5]; read-out: MIC72h TI): 250 µM; MIC [8]: 25 µg/mL and 100 µM; MIC [4, 27]: 99.9 µM
Nc1nccnc1C(=O)Nc1ccc(Cl)c(Cl)c1 [Compound 19, 3-Amino-N-(3,4-dichlorophenyl)pyrazine-2-carboxamide]	0.778	> 500	> 1770	177	50	–
Cc1ccccc1CNC(=O)c1nccnc1N [Compound 2, 3-Amino-N-(2-methylbenzyl)pyrazine-2-carboxamide]	0.278	> 500	> 2060	> 413	> 100	–
CCCCCCCNC(=O)c1nccnc1N [Compound 11, 3-Amino-N-heptylpyrazine-2-carboxamide]	0.813	62.5	264	212	50	MIC ([2]; value in parentheses): 264.5 µM; MIC [7]: 250 µM (≈ 59.1 µg/mL); MIC ([5]; read-out: MIC72h TI): 500 µM; MIC [8]: 50 µg/mL and 212 µM; MIC [4, 27]: 211.6 µM
Nc1nccnc1C(=O)Nc1ccc(F)cc1F [Compound 18, 3-Amino-N-(2,4-difluorophenyl)pyrazine-2-carboxamide]	0.422	> 500	> 2000	> 400	> 100	–
Cc1ccc(C)c(NC(=O)c2nccnc2N)c1 [Compound 15, 3-Amino-N-(2,5-dimethylphenyl)pyrazine-2-carboxamide]	0.778	> 500	> 2060	> 413	> 100	–
CCCCCNC(=O)c1nccnc1N [Compound 9, 3-Amino-N-pentylpyrazine-2-carboxamide]	0.327	> 500	> 2400	> 480	> 100	MIC ([5]; read-out: MIC72h TI): 500 µM
CCCCCCNC(=O)c1nccnc1N [Compound 10, 3-Amino-N-hexylpyrazine-2-carboxamide]	0.569	250	1120	450	100	MIC [7]: 500 µM (≈ 111 µg/mL); MIC ([5]; read-out: MIC72h TI): 250 µM; IC50 at 24 h [3]: 389 µM; MIC [8]: 100 µg/mL and 450 µM; MIC [4, 27]: 449.9 µM
COc1ccc(CNC(=O)c2nccnc2N)cc1 [Compound 4, 3-Amino-N-(4-methoxybenzyl)pyrazine-2-carboxamide]	0.026	> 500	> 1940	387	50 to 100	antifungal activity against TI [5]: showed activity mainly against TI; MIC Mtb [4, 26]: 100 µg/mL (≈ 387 µM)
CNC(C)C1CCC(N)C(OC2C(N)CC(N)C(OC3OCC(C)(O)C(NC)C3O)C2O)O1 (centres unmarked) [gentamicin]	–	–	–	–	–	MIC [9]: > 8 µg/mL; MIC [10]: 2 µg/mL (≈ 4.19 µM); MIC [11, 28]: > 8 µg/mL; MIC [12, 29]: 16 to 32 µg/mL; MIC [13]: 1 to 2 µg/mL (≈ 2.09 to 4.19 µM); MIC [14, 30]: 1 µg/mL; MIC [15]: 8 µg/mL (≈ 16.8 µM); MIC [16]: 0.5 µg/mL (≈ 1.05 µM)
COc1ccc(CNC(=O)c2nccnc2N)c(OC)c1 [Compound 5, 3-Amino-N-(2,4-dimethoxybenzyl)pyrazine-2-carboxamide]	0.188	> 500	> 1730	> 347	> 100	–
Nc1nccnc1C(=O)Nc1ccc(C(F)(F)F)cc1 [Compound 20, 3-Amino-N-(4-(trifluoromethyl)phenyl)pyrazine-2-carboxamide]	0.525	31.2	111	177	50	MIC ([2]; value in parentheses): 110.7 µM; MIC ([11]; Staphylococcus epidermidis, 1122016, read-out: MIC S. epidermidis): 62.5 µM; IC50 at 24 h [3]: 41.4 µM; MIC ([12]; CCM4750|MRSA, read-out: MIC methicillin resistant S. aureus (MRSA)): 62.5 µM; MIC ([14]; CCM4223, read-out: MIC Staphylococcus aureus): 31.2 µM
O=C(O)c1cn(C2CC2)c2cc(N3CCNCC3)c(F)cc2c1=O [ciprofloxacin]	–	0.0625 to 0.125	–	–	–	MIC [6]: 0.00781 to 0.0156 µg/mL (≈ 0.0236 to 0.0472 µM); MIC [9]: > 1.02 µg/mL; MIC [10]: 0.256 µg/mL (≈ 0.773 µM); MIC [11, 28]: > 1.02 µg/mL; MIC [12, 29]: 0.128 µg/mL; MIC [13]: 0.008 µg/mL (≈ 0.0241 µM); MIC [14, 30]: 0.128 to 0.256 µg/mL; MIC [15]: 0.512 µg/mL (≈ 1.55 µM); MIC [16]: 0.128 µg/mL (≈ 0.386 µM)
C[C@@H]1[C@H](O)[C@@H](C)/C=C/C=C/C=C/C=C/C=C/C=C/C=C/[C@H](O[C@@H]2O[C@H](C)[C@@H](O)[C@H](N)[C@@H]2O)C[C@@H]2O[C@](O)(C[C@@H](O)C[C@@H](O)[C@H](O)CC[C@@H](O)C[C@@H](O)CC(=O)O[C@H]1C)C[C@H](O)[C@H]2C(=O)O [amphotericin B]	–	–	–	–	–	MIC [17]: 1 µg/mL (≈ 1.08 µM); MIC [18]: 1 µg/mL (≈ 1.08 µM); MIC [19]: 8 µg/mL (≈ 8.66 µM); MIC ([5]; read-out: MIC Trichophyton interdigitale (standards)): 2 µg/mL; MIC [20]: 0.5 µg/mL (≈ 0.541 µM); MIC [21]: 0.5 µg/mL (≈ 0.541 µM)
Nc1nccnc1C(=O)NCc1ccc(C(F)(F)F)cc1 [Compound 8, 3-Amino-N-(4-(trifluoromethyl)benzyl)pyrazine-2-carboxamide]	0.308	> 500	> 1690	169	50 to 100	MIC Mtb [4, 26]: 50 µg/mL (≈ 169 µM)
Nc1nccnc1C(=O)NCc1cccc(C(F)(F)F)c1 [Compound 7, 3-Amino-N-(3-(trifluoromethyl)benzyl)pyrazine-2-carboxamide]	0.282	250	844	169	50 to 100	antifungal activity against TI [5]: showed activity mainly against TI; MIC Mtb [4, 26]: 50 µg/mL (≈ 169 µM)
